This is an account of results in US6395683B1, “Heterocyclylbenzonitriles” (Bayer Aktiengesellschaft, priority 1994, dated 2002).

What all share (test): Post-emergence test
Holding throughout (assay type): in vivo

The subject of one data set is Abutilon. The conditions noted are these: 30 g/ha, after three weeks. Here is the method: (§1) Post-emergence Test Solvent: 5 parts by weight of acetone Emulsifier: 1 part by weight of alkylaryl polyglycol ether To produce a suitable preparation of active compound, 1 part by weight of active compound is mixed with the stated amount of solvent, the stated amount of emulsifier is added and the concentrate is diluted with water to the desired concentration. Test plants which have a height of 5-15 cm are sprayed with the preparation of the active compound in such a way as to apply the particular amounts of active compound desired per unit area. After three weeks, the degree of damage to the plants is rated in % damage in comparison to the development of the untreated control. The figures denote: 0%=no action (like untreated control) 100%=total destruction

In a further data set the test system is Amaranthus. The conditions noted are these: 30 g/ha, after three weeks. The procedure: as §1
The subject of another data set is Chenopodium. To be noted: 30 g/ha, after three weeks. Here is the method: as §1
The subject of another data set is Veronica. To be noted: 30 g/ha, after three weeks. Here is the method:
as §1

In a further data set the test system is barley. To be noted: 30 g/ha, barley (crop plant), after three weeks. The procedure: as §1

For the compound `CS(=O)(=O)Nc1cc(N2C(=O)C3=C(CCCC3)C2=O)c(F)cc1C#N` [Example 1, N-(4-cyano-2-fluoro-5-methylsulphonylaminophenyl)-3,4,5,6-tetrahydrophthalimide], the “degree of damage to the plants, % damage in comparison to untreated control” value came out at 100% with Abutilon, 100% in the data set on Amaranthus, 95% with Chenopodium and 100% in the data set on Veronica. The “tolerance with respect to crop plants” value in the data set on barley is listed as “very good tolerance”.
